From ChEMBL document CHEMBL4385604, “Identification of Pyrrolo[2,3- d]pyrimidine-Based Derivatives as Potent and Orally Effective Fms-like Tyrosine Receptor Kinase 3 (FLT3) Inhibitors for Treating Acute Myelogenous Leukemia” (J Med Chem, 2019)
pIC50, pKd: −log10 of the molar value.

Tests used:
[1] = system: BaF3; assay: cells; settings: Mus musculus, BaF3, 72 h
Description: Antiproliferative activity against mouse BAF3 cells harboring FLT3-ITD-F691L mutant measured after 72 hrs by MTT assay

[2] = system: MV4-11; assay: Cell cycle arrest in human MV4-11 cells assessed as accumulation at S phase at 30 nM after 24 hrs by propidium iodide staining-based flow cytometric analysis (reference value: 30.12%); type: functional
[3] = system: BaF3; assay: cells; settings: Mus musculus, BaF3, 72 h; remark: listed apart in the source
Description: Antiproliferative activity against mouse BAF3 cells harboring FLT3-ITD-D835V mutant measured after 72 hrs by MTT assay

[4] = system: MOLM-13; assay: Induction of apoptosis in human MOLM13 cells assessed as early apoptotic cells at 1 uM after 48 hrs by Annexin V/propidium iodide staining based flow cytometry (reference value: 5.97%); type: functional
[5] = system: MOLM-13; assay: Induction of apoptosis in human MOLM13 cells assessed as viable cells at 10 nM after 48 hrs by Annexin V/propidium iodide staining based flow cytometry (reference value: 88.2%); type: functional; settings: MOLM-13, 48 h, read-out: Activity
[6] = system: MV4-11; assay: Induction of apoptosis in human MV4-11 cells assessed as viable cells at 100 nM after 48 hrs by Annexin V/propidium iodide staining based flow cytometry (reference value: 94.4%); type: functional; settings: MV4-11, 48 h, read-out: Activity
[7] = target: Receptor-type tyrosine-protein kinase FLT3 (Homo sapiens) (UniProt P36888); assay: Inhibition of FLT3 autophosphorylation in human MV4-11 cells assessed as ratio of phosphorylated FLT3 to beta-actin level at 30 nM after 2 hrs by Western blot analysis relative to control; type: cell-based
[8] = Toxicity in NOD/SCID mouse xenografted with human MV4-11 cells at 1 to 3 mg/kg, po qd for 14 days; type: organism-based; settings: in vivo, 336 h
[9] = system: MOLM-13; assay: Cell cycle arrest in human MOLM13 cells assessed as accumulation at G0/G1 phase at 1 nM after 24 hrs by propidium iodide staining-based flow cytometric analysis (reference value: 44.53%); type: functional
[10] = system: MOLM-13; assay: Antitumour activity against human MOLM13 cells xenografted in NOD/SCID mouse assessed as tumour growth inhibition at 1 mg/kg, po qd for 10 days measured every two days during compound dosing by caliper method relative to control; type: functional; settings: MOLM-13, po, read-out: TGI
[11] = system: MV4-11; assay: Induction of apoptosis in human MV4-11 cells assessed as early apoptotic cells at 10 uM after 48 hrs by Annexin V/propidium iodide staining based flow cytometry (reference value: 2.76%); type: functional
[12] = system: Receptor-type tyrosine-protein kinase FLT3 (Homo sapiens), P36888 [UNDEFINED MUTATION]; assay: Inhibition of FLT3 ITD mutant in human MOLM13 cells assessed as ratio of phosphorylated STAT5 to beta-actin level at 30 nM after 2 hrs by Western blot analysis relative to control; type: cell-based
[13] = Plasma clearance in Sprague-Dawley rat at 5 mg/kg, po by LC-MS/MS analysis; type: ADME, organism-based
[14] = system: MOLM-13; assay: Induction of apoptosis in human MOLM13 cells assessed as viable cells at 1 uM after 48 hrs by Annexin V/propidium iodide staining based flow cytometry (reference value: 88.2%); type: functional; settings: MOLM-13, 48 h, read-out: Activity
[15] = system: MV4-11; assay: Antitumour activity against human MV4-11 cells xenografted in po dosed NOD/SCID mouse assessed as tumour growth inhibition administered daily for 14 days; type: functional, organism-based
[16] = system: MOLM-13; assay: Induction of apoptosis in human MOLM13 cells assessed as necrotic cells at 1 uM after 48 hrs by Annexin V/propidium iodide staining based flow cytometry (reference value: 0.29%); type: functional
[17] = system: MOLM-13; assay: Antitumour activity against human MOLM13 cells xenografted in NOD/SCID mouse assessed as tumour growth inibition at 10 mg/kg, po qd for 10 days measured every two days during compound dosing by caliper method relative to control; type: functional; settings: MOLM-13, po, read-out: TGI
[18] = target: Receptor-type tyrosine-protein kinase FLT3 (Homo sapiens, UniProt P36888, R834Q); assay: Binding affinity to human partial length FLT3 R834Q mutant (V592 to Y969 residues) expressed in HEK293 cells measured after 1 hr by qPCR analysis; type: cell-based
[19] = target: Receptor-type tyrosine-protein kinase FLT3 (Homo sapiens) (UniProt P36888); assay: Inhibition of FLT3 autophosphorylation in human MOLM13 cells assessed as ratio of phosphorylated FLT3 to beta-actin level at 100 nM after 2 hrs by Western blot analysis relative to control; type: cell-based
[20] = system: MOLM-13; assay: Cell cycle arrest in human MOLM13 cells assessed as accumulation at G2/M phase at 30 nM after 24 hrs by propidium iodide staining-based flow cytometric analysis (reference value: 13.52%); type: functional
[21] = species on record: Homo sapiens; assay: Inhibition of MAPK in human MOLM13 cells assessed as ratio of phosphorylated ERK to beta-actin level at 30 nM after 2 hrs by Western blot analysis relative to control; type: cell-based
[22] = system: MV4-11; assay: Induction of apoptosis in human MV4-11 cells assessed as late apoptotic cells at 1 uM after 48 hrs by Annexin V/propidium iodide staining based flow cytometry (reference value: 2.83%); type: functional
[23] = system: MOLM-13; assay: Induction of apoptosis in human MOLM13 cells assessed as late apoptotic cells at 1 nM after 48 hrs by Annexin V/propidium iodide staining based flow cytometry (reference value: 5.52%); type: functional
[24] = target: Receptor-type tyrosine-protein kinase FLT3 (Homo sapiens, UniProt P36888, D835H); assay: Binding affinity to human partial length FLT3 D835H mutant (V592 to Y969 residues) expressed in Escherichia coli after 1 hr by qPCR analysis
[25] = system: MV4-11; assay: Induction of apoptosis in human MV4-11 cells assessed as viable cells at 10 uM after 48 hrs by Annexin V/propidium iodide staining based flow cytometry (reference value: 94.4%); type: functional; settings: MV4-11, 48 h, read-out: Activity
[26] = system: MOLM-13; assay: Induction of apoptosis in human MOLM13 cells assessed as late apoptotic cells at 10 nM after 48 hrs by Annexin V/propidium iodide staining based flow cytometry (reference value: 5.52%); type: functional
[27] = system: MV4-11; assay: Antitumour activity against human MV4-11 cells xenografted in NOD/SCID mouse assessed as tumour growth inhibition at 10 mg/kg, po qd for 18 days measured every two days during compound dosing by caliper method relative to control; type: functional; settings: MV4-11, po, read-out: TGI
[28] = system: MOLM-13; assay: Induction of apoptosis in human MOLM13 cells assessed as viable cells at 1 nM after 48 hrs by Annexin V/propidium iodide staining based flow cytometry (reference value: 88.2%); type: functional; settings: MOLM-13, 48 h, read-out: Activity
[29] = system: MV4-11; assay: Cell cycle arrest in human MV4-11 cells assessed as accumulation at G0/G1 phase at 10 nM after 24 hrs by propidium iodide staining-based flow cytometric analysis (reference value: 48.76%); type: functional
[30] = system: MOLM-13; assay: Cell cycle arrest in human MOLM13 cells assessed as accumulation at S phase at 1 nM after 24 hrs by propidium iodide staining-based flow cytometric analysis (reference value: 41.95%); type: functional
[31] = target: Receptor-type tyrosine-protein kinase FLT3 (Homo sapiens) (UniProt P36888); assay: Inhibition of FLT3 autophosphorylation in human MV4-11 cells assessed as ratio of phosphorylated FLT3 to beta-actin level at 100 nM after 2 hrs by Western blot analysis relative to control; type: cell-based
[32] = system: MV4-11; assay: Cell cycle arrest in human MV4-11 cells assessed as accumulation at G0/G1 phase at 1 nM after 24 hrs by propidium iodide staining-based flow cytometric analysis (reference value: 48.76%); type: functional
[33] = target: Receptor-type tyrosine-protein kinase FLT3 (Homo sapiens, UniProt P36888, ITD); assay: Binding affinity to human partial length FLT3 ITD mutant expressed in Escherichia coli measured after 1 hr by qPCR analysis

C=CCn1cc(-c2ccc(NC(=O)Nc3cc(C(C)(C)C)on3)cc2)c2c(N)ncnc21
pIC50 [1]: 7.89 | Activity [2]: 1.96% | pIC50 [3]: 7.68 | Activity [4]: 23.5% | viability at 0.01 µM [5]: 66.1% | viability at 0.1 µM [6]: 75.7% | fold change (FC) [7]: 0 | Activity [8]: Non-Toxic | Activity [9]: 53.77% | inhibition in vivo at 1 mg/kg [10]: 77.9% | Activity [11]: 13.4% | fold change (FC) [12]: 0 | CL/F [13]: 20.3 mL/min/kg | viability at 1 µM [14]: 29% | TGI [15]: Dose-dependent effect | Activity [16]: 0.62% | inhibition in vivo at 10 mg/kg [17]: 96% | pKd [18]: 7.99 | fold change (FC) [19]: 0 | Activity [20]: 2.47% | fold change (FC) [21]: 0.1 | Activity [22]: 24.8% | Activity [23]: 8.57% | pKd [24]: 8.29 | viability at 10 µM [25]: 18.1% | Activity [26]: 18.3% | inhibition in vivo at 10 mg/kg [27]: 100% | viability at 0.001 µM [28]: 85% | Activity [29]: 95.74% | Activity [30]: 35.23% | fold change (FC) [31]: 0 | Activity [32]: 50.94% | pKd [33]: 7.69
